This is an account of results in patent publication US11639530B2, “CD133 related to anticancer agent resistance in colon cancer and use thereof” (KOREA UNIVERSITY RESEARCH AND BUSINESS FOUNDATION, priority 2019, dated 2023).

In experiment [1] the test system is CD133 expression in a liver cancer cell line. Nature of the experiment: CD133 expression (Western blotting) and CD133 ORF promoter luciferase activity after EGF treatment. The experiment is classed as cell-based. As for the experimental part:
After treatment with an inhibitor against an EGF downstream signaling molecule, CD133 expression was investigated. Specifically, for transfection and Western blotting, a specific gene (plasmid vector or siRNA) was expressed in cells using a transfection reagent. For general plasmid vector transfection, 24 hours after transfection, cells were harvested, and for siRNA transfection, 48 hours after transfection, cells were harvested. For Western blotting, the harvested cells were lysed in RIPA buffer, and centrifuged at 12,000 g for 20 minutes at 4° C., followed by collecting a supernatant. The collected supernatant was subjected to SDS-PAGE gel electrophoresis, and transferred onto a nitrocellulose membrane, followed by detecting the expression of a desired protein using suitable antibodies. As a result, it was observed that NF-κB is involved in EGF-induced CD133 expression (FIG. 1B). […] Cells were simultaneously transfected with the luciferase vector and a Renilla plasmid vector for quantification. Twenty-four hours after transfection, the cells were treated with EGF for 14 hours, lysed with lysis buffer and centrifuged to obtain a supernatant, and then luciferase activity was measured using the Luminometer 20/20 (FIG. 1D).

For a further experiment, the system named is liver cancer cell line. Nature of the experiment: Microscopic analysis of microvesicle and TNT formation (WGA-488/DAPI staining, confocal). The experiment is classed as cell-based. The method, then:
The relationship between EGF and microvesicle and TNT formation was investigated by microscopic analysis. Specifically, after 14 hours of EGF treatment, cells were fixed with 4% paraformaldeyde and treated with WGA-488 and DAPI for 10 minutes to stain the cell membrane and nucleus. Fluorescence intensity was measured using an LSM700 Meta confocal microscope.

Turning to EGF: epithelial growth factor (EGF), the CD133 expression regulation result in experiment [1] is “activates NF-κB and regulates CD133 expression at the transcription level”. In addition, in the experiment with liver cancer cell line, the “microvesicle and TNT formation between cells” value was “microvesicle and TNT formation increases between cells”.
